{"source": "patent US20050000154A1", "about": "“Apparatus and methods for enhanced plant and lawn growth using alkane injection” (Global BioSciences, Inc., priority 2001, published 2005)", "key": {"[1]": {"test_system": "sweet corn, variety Sugar Dots", "conditions": "for Seedling Height: two seedlings", "procedure": "(§1) The tubing intersected the vessel through the diameter at a height of 1.5 cm above the base. […] Each vessel was filled with approximately 523 cm^3 of Iowa Crop Soil (soil depth =5.5 cm) that had been collected from an Iowa commercial cornfield. The soil in each vessel was tested for pH using a Chemetrics pH meter dipped in a mixture of 40 ml distilled water and 100 grams of soil.\n(§2) Each vessel was seeded with two seeds of sweet corn, variety Sugar Dots, placed (illustrated in FIG. 9) at a depth of 2.54 cm below soil surface. Each vessel was then watered with 100 ml spring water and positioned on its own drainage tray on a shelf approximately 10 cm below two 33 watt grow light tubes (no sunlight) equipped with a timer set for 16 hours light on, 6 hours light off. White reflective covering was placed on the wall immediately behind the samples, with an aluminum foil hood extending over the light fixture to reflect light downward onto the vessels."}, "[2]": {"test_system": "sunflower (Sun Gold-Golden Yellow Double) seed", "conditions": "for Seedling Height / germination: sterilized Caribbean Beach Sand", "procedure": "Four vessels were filled with approximately 800 cm^3 of Paver Construction Sand (non-sterile) and two vessels contained sterilized Caribbean beach sand (see FIG. 23).\n(§3) Each vessel contained one sunflower (Sun Gold-Golden Yellow Double) seed placed at a depth of 5.0 cm below soil surface. Each vessel was then watered with 100 ml spring water and positioned on its own drainage tray on a shelf approximately 60 cm below two 33 watt grow light tubes (no sunlight) equipped with a timer set for 16 hours light on, 6 hours light off."}, "[3]": {"test_system": "Gladioli bulb", "procedure": "Each vessel was filled with approximately 800 cm^3 of Pro-Mix® Potting Soil (see FIGS. 20 and 21).\nas §3, with “Gladioli bulb” for “sunflower (Sun Gold-Golden Yellow Double) seed”, “10” for “5.0”"}, "[4]": {"test_system": "Gladioli bulb", "conditions": "liquid butane injected into the rhizosphere, halted Day 19", "procedure": "Each vessel was filled with approximately 800 cm^3 of Pro-Mix® Potting Soil 214.\nas §3, with “Gladioli bulb 216” for “sunflower (Sun Gold-Golden Yellow Double) seed”, “10” for “5.0”, “surface. FIG. 21 is a photograph showing the bulbs and vessels.” for “surface.”"}, "[5]": {"test_system": "sweet corn, variety Sugar Dots", "conditions": "for Seedling Height: two seedlings", "procedure": "as §1, with “3.5” for “1.5”, “902” for “523”, “=9.5” for “=5.5”\nas §2, with “Dots, (using the seed positions shown” for “Dots, placed (illustrated”, “9) placed” for “9)”, “below three” for “below two”", "remark": "listed apart in the source"}, "[6]": {"conditions": "Table 7 Day No. 6 (final day), Butane Bulb 1 and 2"}}, "note": "“And” between values parts separate entries of the source, which are not always exact repeats. Equal entries are not always repeated. Where two headings read alike, the source gives them in different places."}
{"smiles": "CCCC", "note": "[Butane, n-butane]", "values": [{"measurement": "Seedling Height", "setting": "[1]; Day No. 6, n-butane injected into root zone", "result": "0.5 cm and 0.8 cm"}, {"measurement": "Seedling Height", "setting": "[1]; Day No. 7", "result": "4.0 cm and 4.5 cm"}, {"measurement": "Seedling Height", "setting": "[1]; Day No. 8", "result": "7.0 cm and 6.0 cm"}, {"measurement": "Seedling Height", "setting": "[1]; Day No. 9 (final day)", "result": "11.0 cm and 6.8 cm"}, {"measurement": "Seedling Height", "setting": "[1]; Day No. 9 (final day), listed as butane", "result": "11 cm and 6.8 cm"}, {"measurement": "root spread compared with control plants", "setting": "[1]; seen through clear vessels", "result": "greater and more complex degree horizontally"}, {"measurement": "root development compared with control plant", "setting": "[2]; Day 23, Paver Sand, unearthed", "result": "thicker and more robust"}, {"measurement": "Seedling Height", "setting": "[2]; Day No. 23, Paver Sand (non-sterile), two plants", "result": 20.0, "unit": "cm"}, {"measurement": "Seedling Height / germination", "setting": "[2]; Day No. 23", "result": "no seed growth or"}, {"measurement": "Seedling Height / germination", "setting": "[2]; Day No. 23, listed as butane", "result": "No seed growth or germination"}, {"measurement": "Seedling Height, secondary shoot", "setting": "[3]; Table 7 Day No. 1, Butane Bulb 2", "result": "Secondary shoot 3.0 cm"}, {"measurement": "Seedling Height, main shoot", "setting": "[3]; [6]", "result": "27.0 cm and 29.0 cm"}, {"measurement": "Seedling Height, secondary shoot", "setting": "[3]; [6]", "result": "14.0 cm and 23.0 cm"}, {"measurement": "root development compared with control plant", "setting": "[3]; butane enrichment for 17 days, bulbs unearthed", "result": "greater"}, {"measurement": "bulb shoot bifurcation", "setting": "[3]; butane gas injection, shoots directly from the bulb sphere", "result": "conditioned to grow two plants"}, {"measurement": "effect of liquid butane injection on growing plants", "setting": "[4]; listed as Liquid butane", "result": "into the rhizosphere killed the"}, {"measurement": "effect of liquid butane injection on growing plants", "setting": "[4]; listed as liquid butane", "result": "killed"}, {"measurement": "average height taller than the control corn plant", "setting": "[5]; Day 16", "result": 55, "unit": "%"}, {"measurement": "average growth in height", "setting": "[5]; Day 16, average of two plants", "result": 23.3, "unit": "cm"}, {"measurement": "Seedling Height", "setting": "[5]; Day No. 5", "result": "0.5 cm and 1.0 cm"}, {"measurement": "Seedling Height", "setting": "[5]; Day No. 6", "result": "3.0 cm, 3.0 cm"}, {"measurement": "Seedling Height", "setting": "[5]; Day No. 7", "result": "4.0 cm, 4.0 cm"}, {"measurement": "Seedling Height", "setting": "[5]; Day No. 8", "result": "6.0 cm and 5.7 cm"}, {"measurement": "Seedling Height", "setting": "[5]; Day No. 9", "result": "8.0 cm and 7.2 cm"}, {"measurement": "Seedling Height", "setting": "[5]; Day No. 10", "result": "11.0 cm and 9.1 cm"}, {"measurement": "Seedling Height", "setting": "[5]; Day No. 11", "result": "16.0 cm and 12 cm"}, {"measurement": "Seedling Height", "setting": "[5]; Day No. 12", "result": "18.0 cm and 15.5 cm"}, {"measurement": "Seedling Height", "setting": "[5]; Day No. 13", "result": "19.0 cm and 16.7 cm"}, {"measurement": "Seedling Height", "setting": "[5]; Day No. 14", "result": "20.1 cm and 17.3 cm"}, {"measurement": "Seedling Height", "setting": "[5]; Day No. 15", "result": "22.0 cm and 18.0 cm"}, {"measurement": "Seedling Height", "setting": "[5]; Day No. 16", "result": "27.0 cm and 19.6 cm"}, {"measurement": "time of sprouting compared with control plant", "setting": "[5]; in vivo", "result": "three days earlier"}, {"measurement": "stem thickness", "setting": "[5]; last day of growth (Day 16), taller plant, shorter plant", "result": "0.5 cm and 0.3 cm"}, {"measurement": "average growth rate", "setting": "[5]; over the sixteen-day period, average of two plants", "result": 1.45, "unit": "cm per day"}, {"measurement": "root branch length", "setting": "[5]; seen through clear vessels", "result": "up to 3 cm"}, {"measurement": "faster growth rate than the control plant", "setting": "[5]; sixteen-day period", "result": 54, "unit": "%"}, {"measurement": "seed sprouting", "setting": "[5]; two seeds planted", "result": "sprouted into seedlings"}]}
